For one series, the system named is Wnt pathway. Put plainly: Cellular assay for Wnt pathway activity (luciferase reporter cell based assay). Particulars: 24 h, HEK293 luciferase reporter cell line (ER-DSH, TCF dependent promoter), induced with estrogen (1 μM), read-out: 7df3 IC50.
A short description of series [1]: CLint (intrinsic clearance) assay, microsomal incubation. The format is in vitro ADME, Human. Particulars: NADPH, 37° C., up to 30 min; for microsomal CLint at 0.8 μM: human, liver microsomes, pH 7.4, human liver microsomes 0.5 mg/mL protein. The essentials:
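Test compound at 0.8 μM was incubated at 37 °C with liver microsomes at 0.5 mg/mL protein in 0.1 M potassium phosphate pH 7.4 with 1 mM MgCl2, NADPH-started, with no-cofactor controls. Acetonitrile quench at 0, 5, 10, 20 and 30 min, then LC-MS/MS peak-area decline. CLint (μL/min/mg protein) = k·1000/protein concentration.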
For orientation: Liver microsomes are vesicles of endoplasmic reticulum, rich in cytochrome P450 enzymes.

In general, IC50 refers to the concentration that inhibits the measured activity by half. For orientation: microsomal CLint means a measure of how fast metabolising enzymes remove a compound, apart from limits set by blood flow.

Regarding `Cn1cc(-c2ccc(-c3cncc(F)c3N3CCC4(CC3)CNC(=O)O4)cc2)cn1` [Example 79, 8-{3-Fluoro-5-[4-(1-methyl-1H-pyrazol-4-yl)-phenyl]-pyridin-4-yl}-1-oxa-3,8-diaza-spiro[4.5]decan-2-one], the IC50 in the series with Wnt pathway is 43 nM. Further, the “Human Clint” value in series [1] (human liver microsomes 0.5 mg/mL protein) turned out to be 24 µL/min/mg.
Turning to `C#Cc1cncc(-c2ccc3c(c2)CS(=O)(=O)N3C)c1N1CCC2(CCNC2=O)CC1` [Example 81, 8-[3-Ethynyl-5-(1-methyl-2,2-dioxo-2,3-dihydro-1H-2l6-benzo[c]isothiazol-5-yl)-pyridin-4-yl]-2,8-diaza-spiro[4.5]decan-1-one], the concentration for half-maximal inhibition (IC50) in the series on Wnt pathway was 0.66 nM. Further, in series [1], the microsomal CLint at 0.8 μM stood at 66 µL/min/mg.
As for `Cn1ncc2cc(-c3cncc(Cl)c3N3CCC4(CC3)NCNC4=O)ccc21` [Example 82, 8-[3-Chloro-5-(1-methyl-1H-indazol-5-yl)-pyridin-4-yl]-1,3,8-triaza-spiro[4.5]decan-4-one], in the series on Wnt pathway, the IC50 came out at 7.3 nM. For the same compound, in series [1], the intrinsic metabolic clearance (microsomal CLint) at 0.8 μM came out at 47 µL/min/mg.
Take `Cn1ncc2cc(-c3cncc(Cl)c3N3CCC(N)(C(N)=O)CC3)ccc21` [Example 83, 4-Amino-5′-chloro-3′-(1-methyl-1H-indazol-5-yl)-3,4,5,6-tetrahydro-2H-[1,4′]bipyridinyl-4-carboxylic acid amide]: in the series with Wnt pathway, the IC50 stood at 7.1 nM. The microsomal CLint at 0.8 μM in series [1] came to 37 µL/min/mg.
For `O=C1CC2(CCN(c3c(Cl)cncc3-c3ccc4c(c3)CS(=O)(=O)N4)CC2)C(=O)N1` [Example 84, 8-[3-Chloro-5-(2,2-dioxo-2,3-dihydro-1H-2l6-benzo[c]isothiazol-5-yl)-pyridin-4-yl]-2,8-diaza-spiro[4.5]decane-1,3-dione], the half-maximal inhibitory concentration (IC50) in the series on Wnt pathway was 15 nM. Besides, the microsomal CLint at 0.8 μM in series [1] is < 10 µL/min/mg.
Regarding `CN1c2ccc(-c3cncc(Cl)c3N3CCC(C#N)(CO)CC3)cc2CS1(=O)=O` [Example 85, 5′-Chloro-4-hydroxymethyl-3′-(1-methyl-2,2-dioxo-2,3-dihydro-1H-2l6-benzo[c]isothiazol-5-yl)-3,4,5,6-tetrahydro-2H-[1,4′]bipyridinyl-4-carbonitrile], in the series with Wnt pathway, the IC50 was found to be 0.7 nM. The intrinsic clearance (microsomal CLint) at 0.8 μM in series [1] was 51 µL/min/mg.
The matching figures for `CN1c2ccc(-c3cncc(Cl)c3N3CCC4(CC3)CC(=O)NC4=O)cc2CS1(=O)=O` [Example 87, 8-[3-Chloro-5-(1-methyl-2,2-dioxo-2,3-dihydro-1H-2l6-benzo[c]isothiazol-5-yl)-pyridin-4-yl]-2,8-diaza-spiro[4.5]decane-1,3-dione]: 0.16 nM and 13 µL/min/mg.
For `Cn1cc(-c2ccc(-c3cncc(Cl)c3N3CCC4(CC3)NCNC4=O)cc2)cn1` [Example 88, 8-{3-Chloro-5-[4-(1-methyl-1H-pyrazol-4-yl)-phenyl]-pyridin-4-yl}-1,3,8-triaza-spiro[4.5]decan-4-one], the IC50 in the series on Wnt pathway was determined as 3.2 nM. Also, in series [1], the microsomal CLint at 0.8 μM is < 10 µL/min/mg.
In the case of `Cn1cc(-c2ccc(-c3cncc(Cl)c3N3CCC4(CCNC4=O)CC3)cc2)cn1` [Example 89, 8-{3-Chloro-5-[4-(1-methyl-1H-pyrazol-4-yl)-phenyl]-pyridin-4-yl}-2,8-diaza-spiro[4.5]decan-1-one], in the series with Wnt pathway, the 50% inhibitory concentration (IC50) was 6.2 nM. Moreover, in series [1], the microsomal CLint at 0.8 μM is 83 µL/min/mg.
In the same order, the values of `O=C1CC2(CCN(c3c(Cl)cncc3-c3ccc(N4CCOCC4)cc3)CC2)C(=O)N1` [Example 90, 8-[3-Chloro-5-(4-morpholin-4-yl-phenyl)-pyridin-4-yl]-2,8-diaza-spiro[4.5]decane-1,3-dione] are 8.8 nM and 66 µL/min/mg.
The matching figures for `Cn1cc2cc(-c3cncc(Cl)c3N3CCC4(CCNC4=O)CC3)ccc2n1` [Example 92, 8-[3-Chloro-5-(2-methyl-2H-indazol-5-yl)-pyridin-4-yl]-2,8-diaza-spiro[4.5]decan-1-one]: 14 nM and 33 µL/min/mg.
The matching figures for `O=C1CCc2cc(-c3cncc(Cl)c3N3CCC4(CCNC4=O)CC3)cnc2N1` [Example 93, 6-[5-Chloro-4-(1-oxo-2,8-diaza-spiro[4.5]dec-8-yl)-pyridin-3-yl]-3,4-dihydro-1H-[1,8]naphthyridin-2-one]: 34 nM and 48 µL/min/mg.
On to `CC(C)n1cc2cc(-c3cncc(Cl)c3N3CCC4(CC3)CNC(=O)O4)ccc2n1` [Example 94, 8-[3-Chloro-5-(2-isopropyl-2H-indazol-5-yl)-pyridin-4-yl]-1-oxa-3,8-diaza-spiro[4.5]decan-2-one], for which the half-maximal inhibitory concentration (IC50) in the series with Wnt pathway worked out at 28 nM. The microsomal CLint at 0.8 μM in series [1] is < 10 µL/min/mg.
In the same order, the values of `CCn1cc2cc(-c3cncc(Cl)c3N3CCC4(CC3)CNC(=O)O4)ccc2n1` [Example 95, 8-[3-Chloro-5-(2-ethyl-2H-indazol-5-yl)-pyridin-4-yl]-1-oxa-3,8-diaza-spiro[4.5]decan-2-one] are 4.5 nM and < 10 µL/min/mg.
In the same order, the values of `C[C@@H]1NC(=O)OC12CCN(c1c(Cl)cncc1-c1ccc3c(c1)CS(=O)(=O)N3C)CC2` [Example 98, (S)-8-[3-Chloro-5-(1-methyl-2,2-dioxo-2,3-dihydro-1H-2l6-benzo[c]isothiazol-5-yl)-pyridin-4-yl]-4-methyl-1-oxa-3,8-diaza-spiro[4.5]decan-2-one] are 4.3 nM and 35 µL/min/mg.
Take `C[C@H]1NC(=O)OC12CCN(c1c(Cl)cncc1-c1ccc3c(c1)CS(=O)(=O)N3C)CC2` [Example 99, (R)-8-[3-Chloro-5-(1-methyl-2,2-dioxo-2,3-dihydro-1H-2l6-benzo[c]isothiazol-5-yl)-pyridin-4-yl]-4-methyl-1-oxa-3,8-diaza-spiro[4.5]decan-2-one]: the 50% inhibitory concentration (IC50) in the series with Wnt pathway is 5.2 nM. The microsomal CLint at 0.8 μM in series [1] was found to be 39 µL/min/mg.
The matching figures for `C[C@H]1NC(=O)OC12CCN(c1c(Cl)cncc1-c1ccc(-c3cnn(C)c3)cc1)CC2` [Example 100, (R)-8-{3-Chloro-5-[4-(1-methyl-1H-pyrazol-4-yl)-phenyl]-pyridin-4-yl}-4-methyl-1-oxa-3,8-diaza-spiro[4.5]decan-2-one]: 37 nM and 31 µL/min/mg.

These data come from patent publication US9926319B2, “Pyridyl piperidines” (MERCK PATENT GMBH, priority 2014, dated 2018).
